The values below come from patent US8653071B2, “α4β2 neuronal nicotinic acetylcholine receptor ligands” (Suven Life Sciences Limited, priority 2009, dated 2014).

In data set [1] the target is Nicotinic Acetylcholine α4β2 Receptor (UniProt P09483+P12390). Put plainly: Binding assay for human or rat nicotinic acetylcholine α4β2 receptor ([3H]Cytisine displacement). The conditions noted are these: [3H]Cytisine 2.5 nM; rat brain frontal cortex or recombinant human receptor in CHO cells (not specified which); read-out: Ki. On the procedure: Binding Assay for Human or Rat Nicotinic Acetylcholine α4β2 Receptor
• Receptor source: Rat brain frontal cortex or recombinant human cDNA expressed in CHO cells • Radioligand: [^3H]Cytisine 15-40 Ci/mmole • Final ligand concentration—[2.5 nM] • Non-specific determinant: Epibatidine—[0.1 μM] • Reference compound: Epibatidine • Positive control: Epibatidine Incubation Conditions:
Increasing concentrations of test compounds or standard were incubated with membrane receptors and radioligand in 120 mM NaCl, 2.5 mM KCl, 1 mM CaCl2, 1 mM MgCl2 and 50 mM TRIS-HCl (pH 7.4) for 60 minutes at room temperature. The reaction was terminated by rapid vacuum filtration onto the glass fiber filters. Radioactivity trapped onto the filters was determined and compared to the control values in order to ascertain any interactions of the test compound(s) with either cloned human or rat receptor binding site.
Literature Reference: Bunnelle W. H., Daanen J. F., Ryther K. B., Schrimpf M. R., Dart M. J., Gelain A., Meyer M. D., Frost J. M., Anderson D. J., Buckley M., Curzon P., Cao Y-J., Puttfarcken P., Searle X., Ji J., Putman C. B., Surowy C., Toma L. and Barlocco D. Structure-Activity Studies and Analgesic Efficacy of N-(3-Pyridinyl)-Bridged Bicyclic Diamines, Exceptionally Potent Agonists at Nicotinic Acetylcholine Receptors. J. Med. Chem. 2007, 50, […].

Data set [2] deals with Male Wister rats. Briefly: Object recognition task model. The note with it: p.o.; for Exploration time mean ± S.E.M, Familiar object / Exploration time mean ± S.E.M, Novel object: choice trial. It is filed as in vivo, rat. On the procedure: Object Recognition Task Model
The cognition-enhancing properties of compounds of this invention were estimated using a model of animal cognition: the object recognition task model.
Male Wister rats (230-280 grams) obtained from N. I. N. (National Institute of Nutrition, Hyderabad, India) was used as experimental animals. Four animals were housed in each cage. […] Also the rats were habituated to individual arenas for 1 hour in the absence of any objects.
One group of 12 rats received vehicle (1 mL/Kg) orally and another set of animals received compound of the formula (I) either orally or i.p., before one hour of the familiar (T1) and choice trial (T2).
The experiment was carried out in a 50×50×50 cm open field made up of acrylic. In the familiarization phase, (T1), the rats were placed individually in the open field for 3 minutes, in which two identical objects (plastic bottles, 12.5 cm height×5.5 cm diameter) covered in yellow masking tape alone (a1 and a2) were positioned in two adjacent corners, 10 cm. from the walls. After 24 hours of the (T1) trial for long-term memory test, the same rats were placed in the same arena as they were placed in T1 trial. Choice phase (T2) rats were allowed to explore the open field for 3 minutes in presence of one familiar object (a3) and one novel object (b) (Amber color glass bottle, 12 cm high and 5 cm in diameter). Familiar objects presented similar textures, colors and sizes. During the T1 and T2 trial, explorations of each object (defined as sniffing, licking, chewing or having moving vibrissae whilst directing the nose towards the object at a distance of less than 1 cm) were recorded separately by stopwatch. Sitting on an object was not regarded as exploratory activity, however, it was rarely observed.
T1 is the total time spent exploring the familiar objects (a1+a2).
T2 is the total time spent exploring the familiar object and novel object (a3+b).
The object recognition test was performed as described by Ennaceur, A., Delacour, J., 1988, A new one-trial test for neurobiological studies of memory in rats—Behavioural data, Behav. Brain Res., 31, 47-59.

Data set [3] in a line: Rodent pharmacokinetic study. It is filed as in vivo. The note with it: Wistar, plasma, Wister rat/Male; for bioavailability: 5 mg/kg Per-Oral vs 5 mg/kg Intravenous; for AUC(0-t) / Cmax / Tmax / half-life: 5 mg/kg. On the procedure:
Rodent Pharmacokinetic Study
Three to five animals were housed in each cage. Animals were kept fasted over night and maintained on a 12 hours light/dark cycle. Three rats were dosed NCE orally (15 or 5 mg/kg) and intravenously (5 mg/kg) on day 0 and day 2
At each time point blood was collected by jugular vein. Plasma was stored frozen at −20° C. until analysis. The concentrations of the NCE compound in plasma were determined using LC-MS/MS method. Schedule time points: Pre dose 0.25, 0.5, 1, 1.5, 2, 3, 4, 6, 8, 10, 12 and 24 hours after dosing (n=3).
Pharmacokinetic parameters Cmax, Tmax, AUCt, T1/2 and Bioavailability were calculated by non-compartmental model using software WinNonlin version 5.0.1.

Structures can show the parent of a compound that is named as a salt.

What is called Ki is a measure of affinity in units of concentration, obtained from inhibition or displacement. As for `CNCC1CC2CC2N1C(=O)c1ccco1` (single isomer, unassigned) [Example 3, Furan-2-yl-(3-methylaminomethyl-2-azabicyclo[3.1.0]hex-2-yl)methanone tartarate], the Ki in data set [1] was 41.7 nM.

As to `CCNCC1CC2CC2N1c1cncc(Br)c1` (stereo not drawn) [Example 5, N-[2-(5-Bromopyridin-3-yl)-2-azabicyclo[3.1.0]hex-3-ylmethyl]ethylamine tartarate], in data set [1], the Ki turned out to be 700 nM.

Regarding `CNCC1CC2CC2N1c1cncc(Cl)c1.O=C(O)/C=C/C(=O)O` (stereo not drawn) [Example 12, N-[2-(5-Chloropyridin-3-yl)-2-azabicyclo[3.1.0]hex-3-ylmethyl]methylamine fumarate], the Ki in data set [1] came out at 77.3 nM. Also, in data set [2] (1 mg/kg), the Inference entry was “Active”; the “Exploration time mean ± S.E.M, Familiar object” value worked out at 4.651 ± 0.619 s; the “Exploration time mean ± S.E.M, Novel object” value was found to be 16.70 ± 2.136 s.

Regarding `CNCC1CC2CC2N1c1cncc(OC)c1` (stereo not drawn) [Example 14, N-[2-(5-Methoxypyridin-3-yl)-2-azabicyclo[3.1.0]hex-3-ylmethyl]methylamine fumarate], in data set [1], the Ki is 179 nM.

With `CNCC1CC2CC2N1c1cncc(OC(C)C)c1` (stereo not drawn) [Example 15, N-[2-(5-Isopropoxypyridin-3-yl)-2-azabicyclo[3.1.0]hex-3-ylmethyl]methylamine], the Ki in data set [1] amounted to 383 nM.

`NCC1CC2CC2N1c1cncc(Sc2ccccc2)c1` (stereo not drawn) [Example 16, [2-(5-Phenylsulfanylpyridin-3-yl)-2-azabicyclo[3.1.0]hex-3-yl]methylamine fumarate]: in data set [1], the Ki is 451 nM.

Turning to `CNCC1CC2CC2N1c1nccnc1O` (stereo not drawn) [Example 20, N-[2-(3-Hydroxypyrazin-2-yl)-2-azabicyclo[3.1.0]hex-3-ylmethyl] methylamine], the Ki in data set [1] was 13 nM.

One may read the bioavailability as the share of a dose that reaches the circulation, judged against a reference dose that is usually intravenous. Low values mean little systemic uptake, high ones much systemic uptake. A word on the AUC(0-t): it is exposure summed from dosing to a finite time, without extrapolation to infinity. Lower therefore signals less exposure. The Cmax is the peak of the concentration-time curve. As usually defined, the Tmax is the time from dosing to the highest level. In general, half-life refers to the time needed for the level to fall by half in the phase considered. Regarding `NCC1CC2CC2N1c1cncnc1.O=C(O)/C=C/C(=O)O` (stereo not drawn) [Example 22, N-(2-(pyrimidin-5-yl)-2-azabicyclo[3.1.0]hex-3-ylmethyl) amine fumarate], the Ki in data set [1] amounted to 58.1 nM. For the same compound, in data set [3], the bioavailability stood at 89 ± 9%. In data set [3] (Intravenous), the AUC(0-t) came to 2250 ± 228 ng·h/mL, the Cmax came to 1380 ± 156 ng/mL, the Tmax is 15 min and the half-life was 80.4 ± 4.2 min. In addition, in data set [3] (Per-Oral), the AUC(0-t) was 2020 ± 377 ng·h/mL, the peak level (Cmax) was 1100 ± 211 ng/mL, the Tmax was determined as 4.8 min and the half-life is 97.8 ± 6.6 min.

Consider `NCC1CC2CC2N1c1ccc(C(F)(F)F)nc1` (stereo not drawn) [Example 24, N-(2-(2-trifluoromethylpyridin-5-yl)-2-azabicyclo[3.1.0]hex-3-ylmethyl) amine fumarate], for which, in data set [1], the Ki amounted to 681 nM.

On to `NCC1CC2CC2N1c1ccc(Cl)nc1` (stereo not drawn) [Example 25, N-(2-(2-chloropyridin-5-yl)-2-azabicyclo[3.1.0]hex-3-ylmethyl) amine fumarate], for which the inhibitory constant (Ki) in data set [1] is 6.9 nM.

Consider `Cc1cncc(N2C(CN)CC3CC32)c1` (stereo not drawn) [Example 26, N-(2-(3-methylpyridin-5-yl)-2-azabicyclo[3.1.0]hex-3-ylmethyl) amine fumarate], for which, in data set [1], the Ki was 5.7 nM.

For `CNCC1CC2CC2N1c1cncc(C)c1` (stereo not drawn) [Example 27, N-(2-(3-methylpyridin-5-yl)-2-azabicyclo[3.1.0]hex-3-ylmethyl)methyl amine bistartarate], the Ki in data set [1] stood at 253 nM.

As for `NCC1CC2CC2N1c1cncc(C(F)(F)F)c1` (stereo not drawn) [Example 28, N-(2-(3-trifluoromethylpyridin-5-yl)-2-azabicyclo[3.1.0]hex-3-ylmethyl) amine fumarate], the inhibition constant Ki in data set [1] is 140 nM.

In the case of `NCC1CC2CC2N1c1cnc2ccccc2c1` (stereo not drawn) [Example 29, N-(2-(quinolin-3-yl)-2-azabicyclo[3.1.0]hex-3-ylmethyl) amine fumarate], in data set [1], the Ki stood at 135 nM.

For `CNCC1CC2CC2N1c1cncc(C(F)(F)F)c1` (stereo not drawn) [Example 30, N-(2-(3-trifluoromethylpyridin-5-yl)-2-azabicyclo[3.1.0]hex-3-ylmethyl) methylamine fumarate], the Ki in data set [1] came to 247 nM.

With `CNCC1CC2CC2N1c1cnc2ccccc2c1` (stereo not drawn) [Example 31, N-(2-(quinolin-3-yl)-2-azabicyclo[3.1.0]hex-3-ylmethyl) methylamine fumarate], the Ki in data set [1] is 1650 nM.

Consider `CNCC1CC2CC2N1C(=O)c1cc2ccccc2o1` (stereo not drawn) [Example 32, Benzofuran-2-yl-(3-methylaminomethyl-2-azabicyclo[3.1.0]hex-2-yl)methanone tartrate], for which, in data set [1], the Ki was 38.3 nM.

`CNCC1CC2CC2N1C(=O)c1cc2cccc(Br)c2o1` (stereo not drawn) [Example 33, (7-Bromo benzofuran-2-yl)-(3-methylaminomethyl-2-azabicyclo[3.1.0]hex-2-yl) methanone tartrate]: the Ki in data set [1] stood at 3000 nM.

As to `NCC1CC2CC2N1C(=O)c1cc2ccccc2[nH]1` (stereo not drawn) [Example 34, (3-Aminomethyl-2-azabicyclo[3.1.0]hex-2-yl)-(1H-indol-2-yl)-methanone], the Ki in data set [1] turned out to be 55 nM.

On to `NCC1CC2CC2N1C(=O)c1ccco1.O=C(O)C(O)C(O)C(=O)O` (stereo not drawn) [Example 35, (3-Aminomethyl-2-aza bicyclo[3.1.0]hex-2-yl) furan-2-yl methanone tartrate], for which, in data set [1], the inhibition constant (Ki) amounted to 38.7 nM. Also, in data set [2] (0.3 mg/kg), the Inference entry is on record as “Active”; the “Exploration time mean ± S.E.M, Familiar object” value stood at 5.30 ± 1.05 s; the “Exploration time mean ± S.E.M, Novel object” value came to 14.90 ± 7.74 s. In addition, the bioavailability in data set [3] is 92 ± 8%. In addition, in data set [3] (Intravenous), the AUC(0-t) amounted to 1420 ± 71 ng·h/mL, the Cmax worked out at 1780 ± 56 ng/mL, the Tmax was 4.8 min and the half-life was 67.8 ± 9 min. In data set [3] (Per-Oral), the AUC(0-t) amounted to 1310 ± 146 ng·h/mL, the Cmax stood at 998 ± 175 ng/mL, the Tmax was found to be 19.8 ± 8.4 min and the half-life was 89.4 ± 15.6 min.

With `NCC1CC2CC2N1C(=O)c1cncc(Br)c1` (stereo not drawn) [Example 36, (3-Aminomethyl-2-azabicyclo[3.1.0]hex-2-yl) (5-bromo pyridin-3-yl) methanone tartrate], the Ki in data set [1] amounted to 17.8 nM.

With `NCC1CC2CC2N1C(=O)c1ccccn1` (stereo not drawn) [Example 37, (3-Aminomethyl-2-azabicyclo[3.1.0]hex-2-yl) pyridin-2-yl methanone tartrate], the Ki in data set [1] was determined as 11.6 nM.

Regarding `NCC1CC2CC2N1C(=O)c1cccnc1` (stereo not drawn) [Example 38, (3-Aminomethyl-2-aza bicyclo[3.1.0]hex-2-yl) pyridin-3-yl methanone tartarate], the Ki in data set [1] is 45 nM.

`NCC1CC2CC2N1C(=O)c1ccncc1` (stereo not drawn) [Example 39, (3-Aminomethyl-2-aza-bicyclo[3.1.0]hex-2-yl) pyridin-4-yl methanone tartarate]: the Ki in data set [1] came to 109 nM.
